Experimental data published in patent US20250162989A1, “USP30 INHIBITORS AND USES THEREOF” (Vincere Biosciences, Inc., priority 2021, published 2025).

Biological target: recombinant USP30 (amino acids 57-517 of the human sequence) (Homo sapiens (Human), UniProt Q70CQ3)
Test: In vitro USP30 biochemical assay (Ubiquitin-Rhodamine substrate)
Conditions: fluorescence
Protocol: In vitro biochemical assay to establish the potency of compounds for USP30 inhibition: a 384-well plate assay using a fluorophore tagged substrate of USP30 was used for in vitro screening of compounds. Each compound was tested at
10 different concentrations (0.5 to 10,000 nM) in duplicate wells. […] Data were analyzed using Graph Pad Prism software with a four-parameter (floating slope) fit to log concentration data to determine IC50s.

[1] = […] recombinant USP30, 25 nM Ubiquitin-Rhodamine
[2] = 1.5 nM recombinant USP30, 25 nM Ubiquitin-Rhodamine

Chain of recombinant USP30 (amino acids 57-517 of the human sequence) (Q70CQ3 57-517): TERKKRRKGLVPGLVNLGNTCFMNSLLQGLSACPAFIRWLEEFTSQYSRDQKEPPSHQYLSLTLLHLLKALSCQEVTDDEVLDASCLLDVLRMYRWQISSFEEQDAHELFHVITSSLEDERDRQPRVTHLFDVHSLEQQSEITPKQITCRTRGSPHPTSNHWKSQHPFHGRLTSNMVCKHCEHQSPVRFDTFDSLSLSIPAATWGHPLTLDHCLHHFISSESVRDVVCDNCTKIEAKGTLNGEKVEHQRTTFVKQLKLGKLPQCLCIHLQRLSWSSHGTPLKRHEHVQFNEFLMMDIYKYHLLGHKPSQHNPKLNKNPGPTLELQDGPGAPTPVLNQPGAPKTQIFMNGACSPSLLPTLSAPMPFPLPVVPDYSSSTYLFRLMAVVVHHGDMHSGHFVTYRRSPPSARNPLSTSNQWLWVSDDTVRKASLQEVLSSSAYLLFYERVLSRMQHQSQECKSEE

SMILES	IC50 [1] [µM]	IC50 [2] [µM]
O=C(Nc1ccc(S(=O)(=O)N[C@@H]2CCOC2)cc1)[C@@H]1C[C@H](O)CN1C(=O)c1ccc(F)cc1 [Compound I-282]	> 10	–
CC(C)C[C@H](NC(=O)c1ccc(F)cc1)[C@@H](O)CNc1ccc(S(=O)(=O)NC(C)(C)C)cc1 [Compound I-220]	> 10	–
O=C(N[C@@H](CC1CCOCC1)C(=O)Nc1cccc2c(S(=O)(=O)NC3COC3)cccc12)c1ccc(F)cc1 [Compound I-10]	–	1 to 10
O=C(N[C@@H](Cc1ccccc1)C(=O)Nc1ccc(S(=O)(=O)NC23CC(C2)C3)c(O)c1)c1ccc(F)cc1 [Compound I-64]	–	0.05 to 1
CC(C)C[C@H](NC(=O)c1ccc(F)cn1)C(=O)Nc1ccc(S(=O)(=O)NC(C)(C)C(F)(F)F)cc1 [Compound I-204]	–	0.05 to 1
CC(C)(C)NS(=O)(=O)c1ccc(NC[C@H](O)[C@H](CC2CCNCC2)NC(=O)c2ccc(F)cc2)cc1 [Compound I-235]	–	1 to 10
CC(C)(C)NS(=O)(=O)c1cccc2c(NC(=O)[C@H](Cc3ccccc3)NC(=O)N3CCOCC3)cccc12 [Compound I-195]	–	0.05 to 1
COc1cc(NC(=O)[C@@H]2C[C@@H](C3CCCCC3)CN2C(=O)c2ccc(F)cc2)ccc1S(=O)(=O)NC(C)(C)C [Compound I-257]	–	0.05 to 1
COCCC(C)(C)NS(=O)(=O)c1ccc(NC(=O)[C@H](CC2CCOCC2)NC(=O)c2ccc(F)cc2)cc1 [Compound I-7]	–	0.05 to 1
COc1cc(NC(=O)[C@H](CC2CCOCC2)NC(=O)c2ccc(F)cc2)cnc1S(=O)(=O)NC(C)(C)CO [Compound I-76]	–	0.05 to 1
CC(C)(CO)NS(=O)(=O)c1ccc(NC(=O)[C@H](CO)NC(=O)c2ccc(F)cc2)cc1 [Compound I-35]	–	1 to 10
CN1CCC(C[C@H](NC(=O)c2ccc(F)cc2)C(=O)Nc2ccc(S(=O)(=O)NC3CCOCC3)nc2)CC1 [Compound I-140]	–	0.05 to 1
O=C(N[C@@H](CC1CCNCC1)C(=O)Nc1ccc(S(=O)(=O)NC2CCOCC2)nc1)c1ccc(F)cc1 [Compound I-144]	–	0.05 to 1
CC(C)(C)NS(=O)(=O)c1ccc(NC(=O)C2CC(C3CCCCC3)CN2C(=O)c2ccc(F)cc2)cc1 (stereo not shown) [Compound I-292]	–	0.05 to 1
O=C(Nc1ccc(S(=O)(=O)NC2COC2)cc1)[C@@H]1C[C@@H](c2ccccc2)CN1C(=O)c1ccc(F)cc1 [Compound I-263]	–	1 to 10
O=C(N[C@@H](CC1CCNCC1)C(=O)Nc1ccc(S(=O)(=O)NC2COC2)nc1)c1ccc(F)cc1 [Compound I-111]	–	1 to 10
CCNS(=O)(=O)c1cccc2c(NC(=O)[C@H](CC3CCOCC3)NC(=O)c3ccc(F)cc3)cccc12 [Compound I-9]	–	0.05 to 1
CC(C)(CN1CCOCC1)NS(=O)(=O)c1ccc(NC(=O)[C@H](CCO)NC(=O)c2ccc(F)cc2)cc1 [Compound I-30]	–	1 to 10
CC(C)(C)NS(=O)(=O)c1ccc(-c2nc([C@H](Cc3ccccc3)NC(=O)c3ccc(F)cc3)n[nH]2)cc1 (stereo in doubt) [Compound I-55, N-(1-(5-(4-(N-(tert-butyl)sulfamoyl)phenyl)-1H-1,2,4-triazol-3-yl)-2-phenylethyl)-4-fluorobenzamide]	–	1 to 10
CC(C)(C)NS(=O)(=O)c1ccc(NC(=O)[C@H](Cc2ccccc2)NC(=O)c2ccc3cn[nH]c3c2)cc1 [Compound I-190]	–	1 to 10

SMILES	IC50 [1] [µM]	IC50 [2] [µM]
CC(C)(C)NS(=O)(=O)c1ccc(NC(=O)[C@H](CC2COC2)NC(=O)c2ccc(F)cc2)cc1 [Compound I-38, (S)—N-(1-((4-(N-(tert-butyl)sulfamoyl)phenyl)amino)-3-(oxetan-3-yl)-1-oxopropan-2-yl)-4-fluorobenzamide]	–	0.05 to 1
CC(C)(C)NS(=O)(=O)c1ccc(NC(=O)C(Cc2ccccc2)c2nnc(-c3ccccc3)[nH]2)cc1 (stereo not shown) [Compound I-89]	> 10	–
N#CN1CC[C@H](NC(=O)[C@H](Cc2ccccc2)NC(=O)c2ccc(F)cc2)C1 [Compound I-123]	–	1 to 10
CC(C)C[C@H](NC(=O)N1CCOCC1)C(=O)Nc1cccc2c(S(=O)(=O)NC(C)(C)C)cccc12 [Compound I-216]	–	1 to 10
CO[C@@H]1C[C@@H](C(=O)Nc2ccc(S(=O)(=O)NC(C)(C)C)cc2)N(C(=O)c2ccc(F)cc2)C1 [Compound I-267]	–	1 to 10
CC(C)(C)NS(=O)(=O)c1ccc(NC(=O)[C@@H]2C[C@@H](C3CCCCC3)CN2C(=O)c2ccc(F)cc2)cc1 [Compound I-253]	–	0.05 to 1
CC(C)C[C@@H](NC(=O)c1ccc(F)cc1)C(=O)Nc1ccc(S(=O)(=O)NC(C)(C)C)cc1 [Compound I-12]	> 10	–
Cn1nccc1CCNS(=O)(=O)c1ccc(NC(=O)[C@H](Cc2ccccc2)NC(=O)c2ccc(F)cc2)cc1 [Compound I-237]	–	0.05 to 1
O=C(N[C@@H](CC1CC1)C(=O)Nc1ccc(S(=O)(=O)NC2COC2)cc1)c1ccc(F)cc1 [Compound I-48]	–	1 to 10
CC(C)(CCO)NS(=O)(=O)c1ccc(NC(=O)[C@H](CC2CCOCC2)NC(=O)c2ccc(F)cc2)cc1 [Compound I-6]	< 0.05	–
COc1cc(NC(=O)[C@H](CC2CCOCC2)NC(=O)c2ccc(F)cc2)ccc1S(=O)(=O)NC(C)(C)C [Compound I-2, (S)—N-(1-((4-(N-(tert-butyl)sulfamoyl)-3-methoxyphenyl)amino)-1-oxo-3-(tetrahydro-2H-pyran-4-yl)propan-2-yl)-4-fluorobenzamide]	< 0.05	–
O=C(N[C@@H](Cc1ccccc1)C(=O)Nc1ccc(S(=O)(=O)NCc2ccncn2)cc1)c1ccc(F)cc1 [Compound I-222]	–	0.05 to 1
CC(=O)O[C@H]1C[C@@H](C(=O)Nc2ccc(S(=O)(=O)N[C@@H]3CCOC3)cc2)N(C(=O)c2ccc(F)cc2)C1 [Compound I-284]	> 10	–
O=C(Nc1ccc(S(=O)(=O)N[C@@H]2CCOC2)cc1)[C@@H]1C[C@@H](c2ccccc2)CN1C(=O)c1ccc(F)cc1 [Compound I-261]	–	1 to 10
O=C(N[C@H](C(=O)Nc1ccc(S(=O)(=O)NC2COC2)cc1)C1CC1)c1ccc(F)cc1 [Compound I-54, (S)—N-(1-cyclopropyl-2-((4-(N-(oxetan-3-yl)sulfamoyl)phenyl)amino)-2-oxoethyl)-4-fluorobenzamide]	–	1 to 10
CC(C)C[C@H](NC(=O)c1ccc(F)cc1)C(=O)Nc1ccc(S(=O)(=O)NCc2ccnn2C)cc1 [Compound I-225]	–	0.05 to 1
CC(C)(NS(=O)(=O)c1ccc(NC(=O)[C@H](CC2CCOCC2)NC(=O)c2ccc(F)cc2)cc1)C(F)(F)F [Compound I-126]	< 0.05	–
CC(C)(C)NS(=O)(=O)c1ccc(NC(=O)[C@H](Cc2ccccc2)NC(=O)C2CCNCC2)cc1 [Compound I-192]	–	1 to 10
CC(C)(C)NS(=O)(=O)c1ccc(NC(=O)[C@H](Cc2ccccc2)NC(=O)c2ncccn2)cc1 [Compound I-191]	> 10	–
CC(C)C[C@H](NC(=O)c1ccccc1)C(=O)NC1CN(C#N)C1 [Compound I-249]	< 0.05	–

SMILES	IC50 [1] [µM]	IC50 [2] [µM]
O=C(N[C@@H](CC1CCNCC1)C(=O)Nc1ccc(S(=O)(=O)N[C@@H]2CCOC2)nc1)c1ccc(F)cc1 [Compound I-108]	–	0.05 to 1
CC(C)C[C@H](NC(=O)c1ccccc1)C(=O)NC1CN(C(=O)OCc2ccccc2)C1 [Compound I-247]	–	1 to 10
COc1cc(NC(=O)[C@H](CC2CCOCC2)NC(=O)c2ccc(F)cc2)ccc1S(=O)(=O)NC1CCOCC1 [Compound I-134]	–	0.05 to 1
CN1CCC(C[C@H](NC(=O)c2ccc(F)cc2)C(=O)Nc2ccc(S(=O)(=O)NC(C)(C)CO)cc2)CC1 [Compound I-44]	–	0.05 to 1
O=C(N[C@@H](Cc1ccccc1)C(=O)NC1CCN(C(=O)OCc2ccccc2)CC1)c1ccc(F)cc1 [Compound I-113]	> 10	–
O=C(Nc1ccc(S(=O)(=O)NC2COC2)nc1)[C@@H]1C[C@@H](c2ccccc2)CN1C(=O)c1ccc(F)cc1 [Compound I-271]	–	1 to 10
CC(C)C[C@H](NC(=O)c1ccc(F)cc1)C(=O)Nc1ccc(S(=O)(=O)NC(C)(C)C(F)(F)F)cc1 [Compound I-221]	–	0.05 to 1
CC(C)(C)NS(=O)(=O)c1ccc(NC(=O)C(Cc2ccccc2)c2nnc(-c3ccc(F)cc3)[nH]2)cc1 (stereo not shown) [Compound I-90]	> 10	–
CNC(=O)N1CCC(NC(=O)[C@H](Cc2ccccc2)NC(=O)c2ccc(F)cc2)CC1 [Compound I-119]	> 10	–
CC(C)CC[C@H](NC(=O)c1ccc(F)cc1)C(=O)Nc1ccc(S(=O)(=O)NC2COC2)cc1 [Compound I-24]	–	0.05 to 1
CC(C)(CO)NS(=O)(=O)c1ccc(NC(=O)[C@@H]2C[C@@H](C3CCCCC3)CN2C(=O)c2ccc(F)cc2)cc1 [Compound I-254]	–	1 to 10
COc1cc(NC(=O)[C@@H]2C[C@@H](c3ccccc3)CN2C(=O)c2ccc(F)cc2)ccc1S(=O)(=O)NC1COC1 [Compound I-265]	–	0.05 to 1
CC(C)(C)NS(=O)(=O)c1ccc(NC(=O)[C@@H]2CCCN2C(=O)c2ccc(F)cc2)cc1 [Compound I-50, (S)—N-(4-(N-tert-butylsulfamoyl)phenyl)-1-(4-fluorobenzoyl)pyrrolidine-2-carboxamide]	–	1 to 10
COc1cc(NC(=O)[C@H](CC(C)C)NC(=O)c2ccc(F)cc2)cnc1S(=O)(=O)NC(C)(C)CO [Compound I-73]	–	1 to 10
CC(C)(C)NS(=O)(=O)c1ccc(NC(=O)[C@H](CC2CCNCC2)NC(=O)c2ccc(F)cc2)cc1 [Compound I-40, (S)—N-(1-((4-(N-(tert-butyl)sulfamoyl)phenyl)amino)-1-oxo-3-(piperidin-4-yl)propan-2-yl)-4-fluorobenzamide]	–	0.05 to 1
CN1CC[C@@H](NC(=O)[C@H](Cc2ccccc2)NC(=O)c2ccc(F)cc2)C1 [Compound I-152]	> 10	–
O=C(Nc1ccc(S(=O)(=O)NC2COC2)cc1)[C@@H]1C[C@@H](O)CN1C(=O)c1ccc(F)cc1 [Compound I-276]	> 10	–
CC(C)(NS(=O)(=O)c1ccc(NC(=O)[C@H](CC2CCOCC2)NC(=O)c2ccc(F)cn2)cc1)C(F)(F)F [Compound I-207]	–	0.05 to 1
